Measurements reported in PMC5218480 (PLoS ONE, 2017).

System: MV-4-11 cells
Assay: Gene expression microarray analysis (Affymetrix PrimeView) and GSEA
Assay type: cell-based, human
Parameters: RFU PODN (11730768_x_at) / Fold change /veh PODN (11730768_x_at) / RFU LINC00158 (11744669_a_at) / Fold change /veh LINC00158 (11744669_a_at) / RFU DUSP10 (11751237_a_at) / Fold change /veh DUSP10 (11751237_a_at) / RFU ID3 (11757404_x_at) / Fold change /veh ID3 (11757404_x_at) / RFU PLEKHG5 (11737974_s_at) / Fold change /veh PLEKHG5 (11737974_s_at) / RFU LRRC4B (11730491_at) / Fold change /veh LRRC4B (11730491_at) / RFU GIMAP4 (11747438_a_at) / Fold change /veh GIMAP4 (11747438_a_at) / RFU KRT8 (11758183_x_at) / Fold change /veh KRT8 (11758183_x_at) / RFU CNN1 (11734310_a_at) / Fold change /veh CNN1 (11734310_a_at) / RFU VPS37D (11726825_at) / Fold change /veh VPS37D (11726825_at) / RFU C10orf10 (11716522_x_at) / Fold change /veh C10orf10 (11716522_x_at) / RFU KIR2DL2 /// KIR2DL4 /// KIR2DL5A /// KIR2DL5B /// KIR2DS1 /// KIR2DS2 /// KIR2DS3 /// KIR2DS4 /// KIR3DL3 /// KIR3DL3 /// KIR3DS1 (11738374_at) / Fold change /veh KIR2DL2 /// KIR2DL4 /// KIR2DL5A /// KIR2DL5B /// KIR2DS1 /// KIR2DS2 /// KIR2DS3 /// KIR2DS4 /// KIR3DL3 /// KIR3DL3 /// KIR3DS1 (11738374_at) / RFU C1QL1 (11718748_at) / Fold change /veh C1QL1 (11718748_at) / RFU TMPRSS4 (11747572_a_at) / Fold change /veh TMPRSS4 (11747572_a_at) / RFU HAMP (11756126_x_at) / Fold change /veh HAMP (11756126_x_at) / RFU RNFT2 (11725882_a_at) / Fold change /veh RNFT2 (11725882_a_at) / RFU NR4A2 (11747474_a_at) / Fold change /veh NR4A2 (11747474_a_at) / RFU ABCC12 (11746883_a_at) / Fold change /veh ABCC12 (11746883_a_at) / RFU TMEM136 (11760407_x_at) / Fold change /veh TMEM136 (11760407_x_at) / RFU CLDN22 /// WWC2 (11732394_at) / Fold change /veh CLDN22 /// WWC2 (11732394_at) / RFU HLA-DPB1 (11760878_x_at) / Fold change /veh HLA-DPB1 (11760878_x_at) / RFU SPINT1 (11716480_a_at) / Fold change /veh SPINT1 (11716480_a_at) / RFU GAP43 (11754022_s_at) / Fold change /veh GAP43 (11754022_s_at) / RFU A4GNT (11735810_at) / Fold change /veh A4GNT (11735810_at) / RFU PRB3 (11715151_x_at) / Fold change /veh PRB3 (11715151_x_at) / RFU TUBB4B (11761932_at) / Fold change /veh TUBB4B (11761932_at) / RFU CAPN14 (11732068_a_at) / Fold change /veh CAPN14 (11732068_a_at) / RFU TMCC2 (11721928_a_at) / Fold change /veh TMCC2 (11721928_a_at) / RFU IRGQ (11745062_a_at) / Fold change /veh IRGQ (11745062_a_at) / RFU FAM174B (11720279_a_at) / Fold change /veh FAM174B (11720279_a_at) / RFU TMPRSS4 (11748680_a_at) / Fold change /veh TMPRSS4 (11748680_a_at) / RFU FAM212B (11763350_a_at) / Fold change /veh FAM212B (11763350_a_at) / RFU PLEKHG5 (11743358_a_at) / Fold change /veh PLEKHG5 (11743358_a_at) / RFU ZSCAN30 (11745921_a_at) / Fold change /veh ZSCAN30 (11745921_a_at) / RFU CMKLR1 (11741424_a_at) / Fold change /veh CMKLR1 (11741424_a_at) / RFU LOC101060620 /// MAPK8IP1 (11723275_at) / Fold change /veh LOC101060620 /// MAPK8IP1 (11723275_at) / RFU SPTSSB (11747773_x_at) / Fold change /veh SPTSSB (11747773_x_at) / RFU PRSS12 (11739890_at) / Fold change /veh PRSS12 (11739890_at) / RFU BIN1 (11741810_x_at) / Fold change /veh BIN1 (11741810_x_at) / RFU WNT11 (11732464_a_at) / Fold change /veh WNT11 (11732464_a_at) / RFU C10orf10 (11716521_a_at) / Fold change /veh C10orf10 (11716521_a_at) / RFU C5orf56 (11738089_at) / Fold change /veh C5orf56 (11738089_at) / RFU CYB561 (11721691_x_at) / Fold change /veh CYB561 (11721691_x_at) / RFU ANKRD19P (11752326_a_at) / Fold change /veh ANKRD19P (11752326_a_at) / RFU OR2T12 /// OR2T33 /// OR2T8 (11738714_s_at) / Fold change /veh OR2T12 /// OR2T33 /// OR2T8 (11738714_s_at) / RFU VCAN (11748164_a_at) / Fold change /veh VCAN (11748164_a_at) / RFU JSRP1 (11732532_at) / Fold change /veh JSRP1 (11732532_at) / RFU KRTAP10-11 (11738290_x_at) / Fold change /veh KRTAP10-11 (11738290_x_at) / RFU MYO3A (11730013_a_at) / Fold change /veh MYO3A (11730013_a_at) / RFU EBF3 (11725865_a_at) / Fold change /veh EBF3 (11725865_a_at) / RFU CAMK2N1 (11719241_x_at) / Fold change /veh CAMK2N1 (11719241_x_at) / RFU C5orf56 (11738088_a_at) / Fold change /veh C5orf56 (11738088_a_at) / RFU OLFML3 (11715873_a_at) / Fold change /veh OLFML3 (11715873_a_at) / RFU LOC100653217 /// NTM (11731650_a_at) / Fold change /veh LOC100653217 /// NTM (11731650_a_at) / RFU MAPK11 (11762145_a_at) / Fold change /veh MAPK11 (11762145_a_at) / RFU FIZ1 (11724087_x_at) / Fold change /veh FIZ1 (11724087_x_at) / RFU OASL (11726364_x_at) / Fold change /veh OASL (11726364_x_at) / RFU SOX15 (11748057_x_at) / Fold change /veh SOX15 (11748057_x_at) / RFU CD79A (11719716_a_at) / Fold change /veh CD79A (11719716_a_at) / RFU HIST1H1D (11736915_at) / Fold change /veh HIST1H1D (11736915_at) / RFU CASKIN2 (11723855_a_at) / Fold change /veh CASKIN2 (11723855_a_at) / RFU LOC730098 (11760151_x_at) / Fold change /veh LOC730098 (11760151_x_at) / RFU OR4N2 (11742367_at) / Fold change /veh OR4N2 (11742367_at) / RFU PRRT2 (11749266_a_at) / Fold change /veh PRRT2 (11749266_a_at) / RFU SNX32 (11753110_a_at) / Fold change /veh SNX32 (11753110_a_at) / RFU CDHR5 (11726645_a_at) / Fold change /veh CDHR5 (11726645_a_at) / RFU RCAN1 (11760418_a_at) / Fold change /veh RCAN1 (11760418_a_at) / RFU FAM167A (11723789_a_at) / Fold change /veh FAM167A (11723789_a_at) / RFU FAM26E (11764081_at) / Fold change /veh FAM26E (11764081_at) / RFU ISYNA1 (11749810_s_at) / Fold change /veh ISYNA1 (11749810_s_at) / RFU ACY1 (11761880_at) / Fold change /veh ACY1 (11761880_at) / RFU 11764098_at / Fold change /veh 11764098_at / RFU SAMD14 (11745864_x_at) / Fold change /veh SAMD14 (11745864_x_at) / RFU NPB (11741838_a_at) / Fold change /veh NPB (11741838_a_at) / RFU TMPRSS6 (11731388_a_at) / Fold change /veh TMPRSS6 (11731388_a_at) / RFU KRTAP10-2 (11738614_at) / Fold change /veh KRTAP10-2 (11738614_at) / RFU ARHGAP8 /// PRR5-ARHGAP8 (11727945_x_at) / Fold change /veh ARHGAP8 /// PRR5-ARHGAP8 (11727945_x_at) / RFU KRTAP5-7 /// NADSYN1 (11734609_at) / Fold change /veh KRTAP5-7 /// NADSYN1 (11734609_at) / RFU RASL12 (11751679_a_at) / Fold change /veh RASL12 (11751679_a_at) / RFU CDKN2B (11736163_a_at) / Fold change /veh CDKN2B (11736163_a_at) / RFU PRF1 (11729649_at) / Fold change /veh PRF1 (11729649_at) / RFU, ZNF638 /// ZNF638-IT1 / Fold change vs veh, ZNF638 /// ZNF638-IT1 / RFU, PANK3 / Fold change vs veh, PANK3 / RFU, SH3YL1 / Fold change vs veh, SH3YL1 / RFU, ZEB2 / Fold change vs veh, ZEB2 / RFU, NRIP1 / Fold change vs veh, NRIP1 / RFU, PTTG1IP / Fold change vs veh, PTTG1IP / RFU, CAPN2 / Fold change vs veh, CAPN2 / RFU, MED14 / Fold change vs veh, MED14 / RFU, SNORA58 / Fold change vs veh, SNORA58 / RFU, C1orf63 / Fold change vs veh, C1orf63 / RFU, LRRFIP1 / Fold change vs veh, LRRFIP1 / RFU, NDUFAF7 / Fold change vs veh, NDUFAF7 / RFU, SLC12A2 / Fold change vs veh, SLC12A2 / RFU, IBTK / Fold change vs veh, IBTK / RFU, ESF1 / Fold change vs veh, ESF1 / Fold change vs veh, TMEM50B / RFU, TAOK1 / Fold change vs veh, TAOK1 / RFU, ACBD3 / Fold change vs veh, ACBD3 / RFU, TMA16 / Fold change vs veh, TMA16 / RFU, RWDD3 / Fold change vs veh, RWDD3 / RFU, BCAT1 / Fold change vs veh, BCAT1 / RFU, EDEM3 / Fold change vs veh, EDEM3 / RFU, TMEM33 / Fold change vs veh, TMEM33 / RFU, WDR75 / Fold change vs veh, WDR75 / RFU, AHCTF1 / Fold change vs veh, AHCTF1 / RFU, TFRC / Fold change vs veh, TFRC / RFU, ZDHHC17 / Fold change vs veh, ZDHHC17 / RFU, NOM1 / Fold change vs veh, NOM1 / RFU, ARL8B / Fold change vs veh, ARL8B / RFU, ZBTB11 / Fold change vs veh, ZBTB11 / RFU, TAMM41 / Fold change vs veh, TAMM41 / RFU, KIAA1704 /// LOC100996395 / Fold change vs veh, KIAA1704 /// LOC100996395 / RFU, ING1 / Fold change vs veh, ING1 / RFU, TRMT61B / Fold change vs veh, TRMT61B / RFU, FUBP3 / Fold change vs veh, FUBP3 / RFU, TP53 / Fold change vs veh, TP53 / RFU, TNKS2 / Fold change vs veh, TNKS2 / RFU, ZFP14 / Fold change vs veh, ZFP14 / RFU, ACTR2 / Fold change vs veh, ACTR2 / RFU, PPP3R1 / Fold change vs veh, PPP3R1 / RFU, PIK3R1 / Fold change vs veh, PIK3R1 / RFU, HNRNPA1 / Fold change vs veh, HNRNPA1 / RFU, RNF170 / Fold change vs veh, RNF170 / RFU, ZNF28 / Fold change vs veh, ZNF28 / RFU, RNGTT / Fold change vs veh, RNGTT / RFU, OGT / Fold change vs veh, OGT / RFU, BRD1 / Fold change vs veh, BRD1 / RFU, MARS / Fold change vs veh, MARS / RFU, ZNF655 / Fold change vs veh, ZNF655 / RFU, FAHD1 / Fold change vs veh, FAHD1 / RFU, BDP1 / Fold change vs veh, BDP1 / RFU, LRRCC1 / Fold change vs veh, LRRCC1 / RFU, ARID1A / Fold change vs veh, ARID1A / RFU, ZNF146 / Fold change vs veh, ZNF146 / RFU, ZNF330 / Fold change vs veh, ZNF330 / RFU, GPN3 / Fold change vs veh, GPN3 / RFU, C9orf123 / Fold change vs veh, C9orf123 / RFU, N4BP2L2 / Fold change vs veh, N4BP2L2 / RFU, ARFIP1 / Fold change vs veh, ARFIP1 / RFU, FAM179B / Fold change vs veh, FAM179B / RFU, BCL10 / Fold change vs veh, BCL10 / RFU, UHRF1BP1L / Fold change vs veh, UHRF1BP1L / RFU, BET1 / Fold change vs veh, BET1 / RFU, CNOT2 / Fold change vs veh, CNOT2 / RFU, ZNF268 / Fold change vs veh, ZNF268 / Fold change vs veh, ZNF507 / RFU, DGCR2 / Fold change vs veh, DGCR2 / RFU, WDSUB1 / Fold change vs veh, WDSUB1 / Fold change vs veh, HSP90B1 /// MIR3652 / RFU, ADSS / Fold change vs veh, ADSS / RFU, GK / Fold change vs veh, GK / RFU, ZNF148 / Fold change vs veh, ZNF148 / RFU, TAF9 / Fold change vs veh, TAF9 / RFU, SLC1A5 / Fold change vs veh, SLC1A5 / RFU, SLMO2 / Fold change vs veh, SLMO2 / RFU, ABCC4 / Fold change vs veh, ABCC4 / RFU, LOC101060439 /// RAP1B / Fold change vs veh, LOC101060439 /// RAP1B / RFU, RFX7 / Fold change vs veh, RFX7 / RFU, GTPBP10 / Fold change vs veh, GTPBP10 / RFU, CNEP1R1 / Fold change vs veh, CNEP1R1 / RFU, BIVM-ERCC5 /// ERCC5 / Fold change vs veh, BIVM-ERCC5 /// ERCC5 / RFU, ILF3 / Fold change vs veh, ILF3 / RFU 11762660_at / Fold change /veh 11762660_at / RFU VCAN (11757783_s_at) / Fold change /veh VCAN (11757783_s_at) / RFU DDX43 (11728927_at) / Fold change /veh DDX43 (11728927_at) / RFU KRT8 (11758188_x_at) / Fold change /veh KRT8 (11758188_x_at) / RFU NKD1 (11759106_at) / Fold change /veh NKD1 (11759106_at) / RFU SRD5A1 (11742802_a_at) / Fold change /veh SRD5A1 (11742802_a_at) / RFU TPSAB1 /// TPSB2 (11721975_s_at) / Fold change /veh TPSAB1 /// TPSB2 (11721975_s_at) / RFU GSTM3 (11746129_a_at) / Fold change /veh GSTM3 (11746129_a_at) / RFU IL23R (11737362_x_at) / Fold change /veh IL23R (11737362_x_at) / RFU TMEM51 (11727254_a_at) / Fold change /veh TMEM51 (11727254_a_at) / RFU PIWIL2 (11732686_x_at) / Fold change /veh PIWIL2 (11732686_x_at) / RFU ORM1 (11744905_x_at) / Fold change /veh ORM1 (11744905_x_at) / RFU CCDC152 (11743942_at) / Fold change /veh CCDC152 (11743942_at) / RFU ECM1 (11717891_a_at) / Fold change /veh ECM1 (11717891_a_at) / RFU IL23R (11748794_a_at) / Fold change /veh IL23R (11748794_a_at) / RFU TNFAIP8L3 (11732012_x_at) / Fold change /veh TNFAIP8L3 (11732012_x_at) / RFU MBOAT4 (11741988_at) / Fold change /veh MBOAT4 (11741988_at) / RFU 11764193_at / Fold change /veh 11764193_at / RFU TMEM53 (11763286_at) / Fold change /veh TMEM53 (11763286_at) / RFU MAGEB2 (11727129_at) / Fold change /veh MAGEB2 (11727129_at) / RFU TMEM200A (11744735_a_at) / Fold change /veh TMEM200A (11744735_a_at) / RFU CCDC152 (11751479_a_at) / Fold change /veh CCDC152 (11751479_a_at) / RFU FAM211A (11726209_a_at) / Fold change /veh FAM211A (11726209_a_at) / RFU RGS16 (11746705_a_at) / Fold change /veh RGS16 (11746705_a_at) / RFU VCAN (11755009_s_at) / Fold change /veh VCAN (11755009_s_at) / RFU RHOB (11743442_s_at) / Fold change /veh RHOB (11743442_s_at) / RFU RGS16 (11720943_a_at) / Fold change /veh RGS16 (11720943_a_at) / RFU RGS16 (11720944_at) / Fold change /veh RGS16 (11720944_at) / RFU, VPS4B / Fold change vs veh, VPS4B / RFU, CREB1 / Fold change vs veh, CREB1 / RFU, DNAJC13 / Fold change vs veh, DNAJC13 / RFU, GNAQ / Fold change vs veh, GNAQ / RFU, CDK5R1 / Fold change vs veh, CDK5R1 / RFU, ZRANB3 / Fold change vs veh, ZRANB3 / RFU, CUL4A / Fold change vs veh, CUL4A / RFU, CCNY / Fold change vs veh, CCNY / RFU, UFL1 / Fold change vs veh, UFL1 / RFU, COG3 / Fold change vs veh, COG3 / RFU, DIAPH2 / Fold change vs veh, DIAPH2 / RFU, SKA2 / Fold change vs veh, SKA2 / RFU, AFF3 / Fold change vs veh, AFF3 / RFU, LMF1 / Fold change vs veh, LMF1 / RFU, IPO11 / Fold change vs veh, IPO11 / RFU, DFFB / Fold change vs veh, DFFB / RFU, FOXP1 / Fold change vs veh, FOXP1 / RFU, CARD8 / Fold change vs veh, CARD8 / RFU, STRN3 / Fold change vs veh, STRN3 / RFU, ADK / Fold change vs veh, ADK / RFU, RASSF2 / Fold change vs veh, RASSF2 / RFU, WIPF1 / Fold change vs veh, WIPF1 / RFU, LARP1B / Fold change vs veh, LARP1B / RFU, RASA1 / Fold change vs veh, RASA1 / RFU, RB1 / Fold change vs veh, RB1 / RFU, PPFIA1 / Fold change vs veh, PPFIA1 / RFU, MAT2A / Fold change vs veh, MAT2A / RFU, CCT5 / Fold change vs veh, CCT5 / RFU, WDR92 / Fold change vs veh, WDR92 / RFU, CUX1 / Fold change vs veh, CUX1 / RFU, TTC7A / Fold change vs veh, TTC7A / RFU, TMEM135 / Fold change vs veh, TMEM135 / RFU, DEPTOR / Fold change vs veh, DEPTOR / RFU, CPM / Fold change vs veh, CPM / RFU, DNAJB6 / Fold change vs veh, DNAJB6 / RFU, CACNA2D3 / Fold change vs veh, CACNA2D3 / RFU, DTX4 / Fold change vs veh, DTX4 / RFU, TFCP2 / Fold change vs veh, TFCP2 / RFU, GMCL1 /// GMCL1P1 / Fold change vs veh, GMCL1 /// GMCL1P1 / RFU, AEBP2 / Fold change vs veh, AEBP2 / RFU, SNHG1 /// SNORD22 /// SNORD25 /// SNORD26 /// SNORD27 /// SNORD28 /// SNORD29 /// SNORD31 / Fold change vs veh, SNHG1 /// SNORD22 /// SNORD25 /// SNORD26 /// SNORD27 /// SNORD28 /// SNORD29 /// SNORD31 / Fold change (Aza/veh), C12orf56 (ProbeSet 11735607_a_at) / Fold change (ACY-1035/veh), C12orf56 (ProbeSet 11735607_a_at) / Fold change (Aza/veh), FGFR1OP (ProbeSet 11751329_s_at) / Fold change (ACY-1035/veh), FGFR1OP (ProbeSet 11751329_s_at) / Fold change (Aza/veh), VPS36 (ProbeSet 11739960_a_at) / Fold change (ACY-1035/veh), VPS36 (ProbeSet 11739960_a_at) / RFU SYPL1 (11715823_x_at) / Fold change /veh SYPL1 (11715823_x_at) / RFU IGFBP7 (11715501_s_at) / Fold change /veh IGFBP7 (11715501_s_at) / RFU REEP3 (11722064_at) / Fold change /veh REEP3 (11722064_at) / RFU IGLL1 (11728026_x_at) / Fold change /veh IGLL1 (11728026_x_at): dose or concentration left out as unconfirmed
Details: ProbeSet 11741311_a_at; LIST B

## Nc1ncn([C@@H]2O[C@H](CO)[C@@H](O)[C@H]2O)c(=O)n1 [azacitidine]
  RFU, ZNF655: 32.83 RFU
